# Results taken from ChEMBL document CHEMBL1201862, “PubChem BioAssay data set” (2004).
#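 Protocol summary: plate cells (96-well), add compound at 5 concentrations, incubate 48 h, interpolate endpoints linearly. GI50 = concentration required for 50% inhibition of growth.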 Active and inactive are the calls of the source. Cut-off read from the data, not from the text of the source: active = GI50 up to about 1.1 µM and inactive = higher.
# Legend:
# Assay in all cases: NCI-60 cell line screen, 48 h
# 786-0 = tested on: 786-0
# A498 = tested on: A498
# ACHN = tested on: ACHN
# COLO 205 = tested on: COLO 205
# EKVX = tested on: EKVX
# HCC 2998 = tested on: HCC 2998
# HCT-15 = tested on: HCT-15
# HL-60 = tested on: HL-60
# HOP-92 = tested on: HOP-92
# OVCAR-4 = tested on: OVCAR-4
# PC-3 = tested on: PC-3
# SF-539 = tested on: SF-539
# SK-MEL-28 = tested on: SK-MEL-28
# SK-MEL-5 = tested on: SK-MEL-5
# SN12C = tested on: SN12C
# SR = tested on: SR
# M14 = tested on: M14
# UACC-62 = tested on: UACC-62
# T47D = tested on: T47D
SMILES,GI50 (786-0),GI50 (A498),GI50 (ACHN),GI50 (COLO 205),GI50 (EKVX),GI50 (HCC 2998),GI50 (HCT-15) [µM],GI50 (HL-60),GI50 (HOP-92),GI50 (OVCAR-4),GI50 (PC-3),GI50 (SF-539),GI50 (SK-MEL-28),GI50 (SK-MEL-5),GI50 (SN12C),GI50 (SR),GI50 (M14),GI50 (UACC-62),GI50 (T47D)
Cn1c(=O)c(C(=O)Nc2nc(C34CC5CC(CC(C5)C3)C4)cs2)c(O)c2ccccc21,36.7 µM (inactive),58.9 µM (inactive),24.3 µM (inactive),> 100 µM (inactive),> 100 µM (inactive),> 100 µM (inactive),> 100,86.9 µM (inactive),18.2 µM (inactive),> 100 µM (inactive),> 100 µM (inactive),> 100 µM (inactive),> 100 µM (inactive),> 100 µM (inactive),> 100 µM (inactive),38.2 µM (inactive),,,
CN(C)c1ccc(/C=N/CC2CCCN3CCCCC23)cc1 (centres undefined),> 100 µM (inactive),,> 100 µM (inactive),42.7 µM (inactive),> 100 µM (inactive),> 100 µM (inactive),> 100,,,,> 100 µM (inactive),,,58.7 µM (inactive),,,> 100 µM (inactive),> 100 µM (inactive),
O=c1[nH]n(CCc2ccccc2CCl)c2ccc([N+](=O)[O-])cc12,93.8 µM (inactive),91 µM (inactive),> 100 µM (inactive),> 100 µM (inactive),3.65 µM (inactive),> 100 µM (inactive),> 100,29.4 µM (inactive),67.6 µM (inactive),37.2 µM (inactive),78.3 µM (inactive),> 100 µM (inactive),> 100 µM (inactive),29.7 µM (inactive),> 100 µM (inactive),50.9 µM (inactive),58.1 µM (inactive),45.8 µM (inactive),
O=S(=O)(c1ccccc1)c1cccc2c1NCCC2,78.7 µM (inactive),> 100 µM (inactive),58.9 µM (inactive),> 10 µM (inactive),58.3 µM (inactive),13.5 µM (inactive),32.4,21.8 µM (inactive),28.8 µM (inactive),> 100 µM (inactive),31.1 µM (inactive),45 µM (inactive),36.7 µM (inactive),23.2 µM (inactive),42.7 µM (inactive),38.3 µM (inactive),75.5 µM (inactive),> 10 µM (inactive),
FC(F)(F)c1cnc(N/N=C(/c2ccccc2)c2ccccn2)c(Cl)c1,4.12 µM (inactive),,3.21 µM (inactive),2.51 µM (inactive),3.43 µM (inactive),5.92 µM (inactive),1.98,,8.75 µM (inactive),7.76 µM (inactive),5.3 µM (inactive),4.6 µM (inactive),11.4 µM (inactive),4.29 µM (inactive),7.52 µM (inactive),2.76 µM (inactive),3.78 µM (inactive),8.75 µM (inactive),
O=c1[nH]nc(Cc2ccccc2)n1/N=C/c1ccco1,> 100 µM (inactive),45.9 µM (inactive),> 100 µM (inactive),> 100 µM (inactive),> 100 µM (inactive),> 100 µM (inactive),> 100,,,> 100 µM (inactive),> 100 µM (inactive),> 100 µM (inactive),> 100 µM (inactive),,> 100 µM (inactive),,> 100 µM (inactive),> 100 µM (inactive),> 100 µM (inactive)
CCOC(=O)Cn1c(=O)c2nc(SC)sc2n(-c2ccccc2)c1=O,> 100 µM (inactive),22.4 µM (inactive),> 100 µM (inactive),> 100 µM (inactive),> 100 µM (inactive),> 100 µM (inactive),> 100,> 100 µM (inactive),33.7 µM (inactive),,> 100 µM (inactive),,> 100 µM (inactive),> 100 µM (inactive),> 100 µM (inactive),> 100 µM (inactive),> 100 µM (inactive),> 100 µM (inactive),
CCn1c2ccccc2c(=O)c2c(OC)ccc(OC)c21,51.3 µM (inactive),25.4 µM (inactive),35.9 µM (inactive),55.7 µM (inactive),> 66.5 µM (inactive),,45.9,29.6 µM (inactive),39 µM (inactive),31.3 µM (inactive),,68.1 µM (inactive),,,42.5 µM (inactive),34.9 µM (inactive),79.8 µM (inactive),43.6 µM (inactive),
CC1(C)OC[C@@]2([C@@H]3CC[C@@H](C3)C2(C)C)N1O,> 100 µM (inactive),> 100 µM (inactive),> 100 µM (inactive),> 100 µM (inactive),> 100 µM (inactive),,> 100,> 100 µM (inactive),27.4 µM (inactive),> 100 µM (inactive),55.8 µM (inactive),> 100 µM (inactive),46.9 µM (inactive),> 100 µM (inactive),> 100 µM (inactive),,> 100 µM (inactive),> 100 µM (inactive),> 100 µM (inactive)
O=C(NCc1ccccc1)c1c(O)nc2ccccc2c1O,> 100 µM (inactive),> 100 µM (inactive),> 100 µM (inactive),> 100 µM (inactive),> 100 µM (inactive),> 100 µM (inactive),> 100,> 100 µM (inactive),> 100 µM (inactive),> 100 µM (inactive),> 100 µM (inactive),> 100 µM (inactive),> 100 µM (inactive),> 100 µM (inactive),> 100 µM (inactive),> 100 µM (inactive),,,
Cc1ccc(-c2c(C#N)c(N)[nH]c(=S)c2C#N)cc1,26.1 µM (inactive),35.2 µM (inactive),79.3 µM (inactive),24 µM (inactive),13.4 µM (inactive),26.7 µM (inactive),38.7,17.3 µM (inactive),31.4 µM (inactive),54.7 µM (inactive),33 µM (inactive),> 100 µM (inactive),26.2 µM (inactive),23.4 µM (inactive),22.3 µM (inactive),22.2 µM (inactive),43.6 µM (inactive),35.4 µM (inactive),
O=C(O)CCc1ccc2c(c1)C(=O)CC2,> 100 µM (inactive),> 100 µM (inactive),> 100 µM (inactive),> 100 µM (inactive),> 100 µM (inactive),> 100 µM (inactive),> 100,> 100 µM (inactive),,> 100 µM (inactive),,> 100 µM (inactive),> 100 µM (inactive),> 100 µM (inactive),> 100 µM (inactive),> 100 µM (inactive),> 100 µM (inactive),> 100 µM (inactive),93.1 µM (inactive)
COC(=O)CCc1ccc2c(c1)CC1(Cc3ccccc3C1)C2,> 100 µM (inactive),> 100 µM (inactive),> 100 µM (inactive),> 100 µM (inactive),> 100 µM (inactive),> 100 µM (inactive),> 100,51.9 µM (inactive),97.5 µM (inactive),> 100 µM (inactive),> 100 µM (inactive),> 100 µM (inactive),,33.6 µM (inactive),> 100 µM (inactive),,> 100 µM (inactive),57.3 µM (inactive),> 100 µM (inactive)
CCOC(=O)c1nnsc1NN=C(C)C,> 100 µM (inactive),> 100 µM (inactive),,> 100 µM (inactive),> 100 µM (inactive),> 100 µM (inactive),> 100,> 100 µM (inactive),,> 100 µM (inactive),> 100 µM (inactive),> 100 µM (inactive),> 100 µM (inactive),> 100 µM (inactive),> 100 µM (inactive),,> 100 µM (inactive),> 100 µM (inactive),> 100 µM (inactive)
CCOC(=O)c1nc2ccccc2nc1Oc1ccc(F)cc1,> 100 µM (inactive),> 100 µM (inactive),84.3 µM (inactive),> 100 µM (inactive),> 100 µM (inactive),,> 100,,2.64 µM (inactive),,> 100 µM (inactive),> 100 µM (inactive),> 100 µM (inactive),> 100 µM (inactive),> 100 µM (inactive),,> 100 µM (inactive),> 100 µM (inactive),> 100 µM (inactive)
COC(=O)C(Cc1c(-c2[nH]c3ccccc3c2CC(NC(C)=O)C(=O)OC)[nH]c2ccccc12)NC(C)=O (centres undefined),> 100 µM (inactive),> 100 µM (inactive),> 100 µM (inactive),> 100 µM (inactive),> 100 µM (inactive),,> 100,> 100 µM (inactive),> 100 µM (inactive),,> 100 µM (inactive),> 100 µM (inactive),> 100 µM (inactive),> 100 µM (inactive),> 100 µM (inactive),,> 100 µM (inactive),> 100 µM (inactive),> 100 µM (inactive)
O=[N+]([O-])c1cccc(/N=C2\c3ccccc3CN2c2cccc([N+](=O)[O-])c2)c1,50.7 µM (inactive),> 100 µM (inactive),74.5 µM (inactive),> 100 µM (inactive),> 100 µM (inactive),> 100 µM (inactive),> 100,,19.4 µM (inactive),65.9 µM (inactive),72.8 µM (inactive),71 µM (inactive),> 100 µM (inactive),> 100 µM (inactive),> 100 µM (inactive),,> 100 µM (inactive),> 100 µM (inactive),> 100 µM (inactive)
Cc1cn(C2CC(N=[N+]=[N-])C(CO)O2)c(=O)n(CCCCO)c1=O (centres undefined),> 100 µM (inactive),> 100 µM (inactive),> 100 µM (inactive),> 100 µM (inactive),> 100 µM (inactive),> 100 µM (inactive),> 100,> 100 µM (inactive),> 100 µM (inactive),> 100 µM (inactive),> 100 µM (inactive),> 100 µM (inactive),> 100 µM (inactive),,> 100 µM (inactive),,> 100 µM (inactive),> 100 µM (inactive),> 100 µM (inactive)
